From patent publication US20240400606A1, “SMALL MOLECULE ACTIVATORS OF THE IMMUNE SYSTEM” (THE BOARD OF TRUSTEES OF THE UNIVERSITY OF ILLINOIS, priority 2021, published 2024)
“Also recorded” adds a separate entry of the source.

How the values were obtained:
SULT2B1b = SULT2B1b (Homo sapiens (Human), UniProt O00204); test: LC-MS/MS based in vitro assay (DHEA-sulfate formation); assay type: biochemical; details: 100 μM compound, 2 hours; mean±s.e.m., n=3
Method: LC-MS/MS Based In Vitro Assay. Stock solutions of DHEA (5 mM in DMSO) and compound of interest (5 mM in DMSO) were prepared. […] SULT2B1b was diluted to 1.5 μg/μL in protein storage buffer then down to 0.8 μg/μL in 1× activity assay buffer. 30 μL of 0.8 μg/μL SULT2B1b was added to each reaction. Reactions were incubated for 2 hours at 37° C. with shaking at 250 rpm. To quench, 30 μL reaction mix was added to 30 μL ice cold 0.5% HCl in MeCN, then centrifuged at 13,000 xg at room temperature for 3 min. 50 μL supernatant was transferred to an empty Eppendorf tube and submitted for LC-MS/MS quantification (UIUC Metabolomics Center), along with 5 mM DHEA sulfate standard. Controls: Reaction mix made with DHEA and DMSO in place of compound of interest (DHEA control). […] General LC-MS/MS Quantification Method. Both DHEAS and CS samples were analyzed by 6500 QTRAP (Sciex, Redwood City, CA) liquid chromatography-tandem mass spectrometry. […] The flow rate was 0.3 mL/min. […] The source temperature was 400° C. […] Cholesterol-sulfate and DHEA-sulfate were detected by multiple reaction monitoring (MRM) at m/z 465→97.0 and 367.0→97.0 respectively. Software Analyst 1.7.1 ([…]) was used for data acquisition and analysis.

T47D cells = test: Alamar blue cellular cytotoxicity, T47D; assay type: cell-based; details: 72 hours
Method: Alamar Blue Fluorescence for Cellular Activity (IC50). Cells were seeded per well in a 96-well plate (5000 for MCF-7, 4000 for T47D, 7000 for mouse embryonic fibroblasts) and allowed to adhere before DMSO solutions of compounds were added to each well. Final concentration of DMSO in each well is 1%, final volume: 100 μL. At the end of 72 hours, Alamar Blue solution was added (10 μL of 1 mg resazurin per 10 mL PBS). After 2-4 hours incubation, fluorescence (λexcit.=555 nm, λemission.=585 nm) was measured. The fluorescence of each well was read with a SpectraMax M3 plate reader (Molecular Devices). Percent dead was determined by comparison to a 100% dead control: 100 μM Raptinal treated cells.

[1] = system: whole cell CS levels in MCF-7; test: Whole cell cholesterol sulfate quantification, MCF-7; assay type: cell-based, human; details: for whole cell CS levels vs DMSO: MCF-7, 6.25 μM compound, 72 hours
Method: (§1) General Whole Cell Cholesterol Sulfate Quantification. 60×15 mm tissue culture dishes were seeded with MCF-7 at 2×10^6 cells/dish or T47D at 1×10^6 cells per dish, 5 mL total media volume, and allowed to adhere overnight. Compounds of interest were dissolved in DMSO. Cells were treated with 25 μL 1.25 mM compound of interest stock (6.25 μM final compound concentration, 0.5% final DMSO concentration) or DMSO for 72 hours. To harvest, media was aspirated, and cells were washed once with PBS before detaching with trypsin. Trypsin was quenched with media. Cells were centrifuged at 300 xg for 3 minutes and supernatant was discarded. Cells were resuspended in media and counted using a Countess 3 automated cell counter (Thermo Fisher Scientific). 1.5×10^6 cells were collected, washed twice with 1 mL PBS, then pelleted and stored at −80° C. until lysis. Cell pellets were resuspended in 200 μL cold 70:30 methanol:water and placed on ice. Cell suspension was sonicated on ice (30%, 10 s on, 20 s off, 1 min total) and continued to be incubated on ice for 30 minutes. Lysate was clarified by centrifugation at 14,100 xg at 4° C. for 30 minutes. 100 μL of supernatant was transferred to an empty Eppendorf tube and submitted for LC-MS/MS quantification (UIUC Metabolomics Center), along with 5 mM cholesterol sulfate sodium salt standard.
as §1, with “Time Course Whole Cell” for “General Whole Cell”, “2×10^6 cells/dish per dish,” for “2×10^6 cells/dish or T47D at 1×10^6 cells per dish,”, “DMSO for 0 (harvested immediately), 4, 8, 24, 48, or 72 hours.” for “DMSO for 72 hours.”
Whole Cell Cholesterol Sulfate Quantification with Compound Removal. 60×15 mm tissue culture dishes were seeded with MCF-7 at 2×10^6 cells/dish, 5 mL total media volume, and allowed to adhere overnight. Compounds of interest were dissolved in DMSO. Cells were treated with 25 μL 1.25 mM compound of interest stock (6.25 μM final compound concentration, 0.5% final DMSO concentration) for 0 hours (harvested immediately) or 24 hours. Media was aspirated and replaced with 5 mL fresh media, then cells were either harvested (24 hour time point) or further incubated. To harvest, media was aspirated, and cells were washed once with PBS before detaching with trypsin. Trypsin was quenched with media. Cells were centrifuged at 300 xg for 3 minutes and supernatant was discarded. Cells were resuspended in media and counted using a Countess 3 automated cell counter (Thermo Fisher Scientific). 1.5×10^6 cells were collected, washed twice with 1 mL PBS, then pelleted and stored at −80° C. until lysis. Cell pellets were resuspended in 200 μL cold 70:30 methanol:water and placed on ice. Cell suspension was sonicated on ice (30%, 10 s on, 20 s off, 1 min total) and continued to be incubated on ice for 30 minutes. Lysate was clarified by centrifugation at 14,100 xg at 4° C. for 30 minutes. […]

Sequence of SULT2B1b (O00204 whole entry): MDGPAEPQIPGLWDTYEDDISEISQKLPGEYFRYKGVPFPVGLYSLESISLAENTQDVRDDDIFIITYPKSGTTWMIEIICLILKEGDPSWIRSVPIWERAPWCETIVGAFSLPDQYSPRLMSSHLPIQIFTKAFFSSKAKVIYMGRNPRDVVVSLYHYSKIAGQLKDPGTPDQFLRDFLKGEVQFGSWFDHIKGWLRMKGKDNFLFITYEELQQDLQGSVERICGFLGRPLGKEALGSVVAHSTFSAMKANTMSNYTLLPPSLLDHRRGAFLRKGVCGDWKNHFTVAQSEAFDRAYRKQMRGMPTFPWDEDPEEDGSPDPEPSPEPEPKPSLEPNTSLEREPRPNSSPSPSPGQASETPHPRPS

SMILES | inhibition at 100 µM (SULT2B1b) [%] | suitable sub-lethal treatment concentration (T47D cells) [µM] | whole cell CS levels vs DMSO [1] | whole cell CS levels vs DMSO ([1]; listed as 2-273) | CS level rebound after compound removal ([1]; MCF-7, 6.25 μM for 24 hours, then compound-free media up to 48 hours) | time of constant treatment to significantly decreased whole cell CS levels ([1]; MCF-7, 6.25 μM, time course) [h] | treatment concentration showing a decrease in CS levels (whole cell dose response) ([1]; MCF-7, 72 hour treatment) [µM]
C[C@]12CCC(=O)N(Cc3ccc(Cl)cc3)C1=CC[C@@H]1[C@@H]2C(=O)C[C@]2(C)C(=O)CC[C@@H]12 [Compound 1, (4aR,4bS,6aS,9aS,9bS)-1-(4-chlorobenzyl)-4a,6a-dimethyl-3,4,4a,6,6a,8,9,9a,9b,10-decahydro-1H-indeno[5,4-f]quinoline-2,5,7(4bH)-trione] | 67.8 ± 0.5 | 6.25 | significantly decrease |  |  |  | 
C[C@]12CCC(=O)N(Cc3ccc(Br)cc3)C1=CC[C@@H]1[C@@H]2C(=O)C[C@]2(C)C(=O)CC[C@@H]12 [Compound 3, (4aR,4bS,6aS,9aS,9bS)-1-(4-bromobenzyl)-4a,6a-dimethyl-3,4,4a,6,6a,8,9,9a,9b,10-decahydro-1H-indeno[5,4-f]quinoline-2,5,7(4bH)-trione] | 72.8 ± 0.1 | 6.25 | significant decrease | significantly decrease; also recorded: significant (p=0.0003) reduction | did not rebound | ≤ 24 | ≤ 0.097
C[C@]12CC[C@H](O)CC1=CC[C@@H]1[C@@H]2CC[C@]2(C)C(n3cnc4ccccc43)=CC[C@@H]12 [Compound 2, Galeterone, reference compound] | 57 ± 0.7 |  | did decrease CS levels |  |  |  | 
